Tests used:
NLRP3 inflammasome = biological target: T1, NLRP3 inflammasome (Homo sapiens, UniProt Q96P20); test: NLRP3 inflammasome activation in LPS-primed, nigericin-activated THP1 macrophages, IL-1β AlphaLISA; type: cell-based; details: PMA-differentiated, 1 hr compound, Nigericin 6.7 uM 3 hrs, IL-1β in supernatant
T1 construct: host or cells: THP1 human acute monocytic leukemia cells, PMA-differentiated, LPS-primed
Method: (§1) NLRP3 Inflammasome Activation and Cell Viability Assessment in THP1 Macrophages
(§2) THP1—Human acute monocytic leukemia cells were cultured (ATCC, cat #TIB-202) in Gibco RPMI-1640 medium (ThermoFisher cat #72400054) supplemented with 10% Heat Inactivated FBS at density between 3-8×10^5 viable cells/mi. The cells were then subcultured when the cell concentration reached 8×10^5 cells/mL (every 2-3 days).
(§3) The parameter wells were filled with 50 ul PBS and incubated at 37° C., 5% CO2 for 48 hrs.
(§4) After 48 hrs incubation, the PMA containing media was removed, and changed for 40 ul/well of fresh DMEM, 10% FBS, 1× GlutaMax and incubated at 37° C., 5% CO2 for 24 hrs.
(§5) The following day the cells were primed with LPS (E. coli) (Sigma, cat #L3129) […] in DMEM, 10% FBS, 1× GlutaMax for 3 hrs at 37° C., 5% CO2.
(§6) Following the LPS priming step, the cells were treated with compounds at 10 uM top final concentration, 1:4 dilution, 8 times: (10 uM, 2.5 uM, 0.625 uM, 0.156 uM, 0.039 uM, 0.0097 uM, 0.0024 uM, 0.0006 uM). DMSO was used as a vehicle control, and MCC950 (InvivoGen, cat #inh-mcc) was used at 1 uM as a positive control, and incubated for 1 hrs at 37° C., 5% CO2.
(§7) Following the 1 hr compound incubation, the NLRP3 inflammasome activation step was conducted by treating cells with Nigericin (InvivoGen, cat #tlrl-nig) at 6.7 uM final concentration for 3 hrs at 37° C., 5% CO2.
(§8) Thereafter, 30 ul samples of cells' supernatants were collected for cytokine analysis which was conducted on Hu IL-1β AlphaLISA (Perkin Elmer, cat #AL220C) and Hu IL-6 AlphaLISA (Perkin Elmer, cat #AL220C). The cells' viability was assessed by performing CellTiter-Glo Luminescent Assay (Promega, cat #G7572) according to the manufacturer's protocol.

IL-6 = IL-6 in supernatants of LPS-primed, nigericin-treated THP1 macrophages, Hu IL-6 AlphaLISA; type: cell-based; details: Homo sapiens, THP-1, PMA-differentiated, 1 hr compound, Nigericin 6.7 uM 3 hrs, IL-6 in supernatant
Method: as §1, §2, §3, §4, §5, §6, §7, §8

T1 sequence (Q96P20 whole entry): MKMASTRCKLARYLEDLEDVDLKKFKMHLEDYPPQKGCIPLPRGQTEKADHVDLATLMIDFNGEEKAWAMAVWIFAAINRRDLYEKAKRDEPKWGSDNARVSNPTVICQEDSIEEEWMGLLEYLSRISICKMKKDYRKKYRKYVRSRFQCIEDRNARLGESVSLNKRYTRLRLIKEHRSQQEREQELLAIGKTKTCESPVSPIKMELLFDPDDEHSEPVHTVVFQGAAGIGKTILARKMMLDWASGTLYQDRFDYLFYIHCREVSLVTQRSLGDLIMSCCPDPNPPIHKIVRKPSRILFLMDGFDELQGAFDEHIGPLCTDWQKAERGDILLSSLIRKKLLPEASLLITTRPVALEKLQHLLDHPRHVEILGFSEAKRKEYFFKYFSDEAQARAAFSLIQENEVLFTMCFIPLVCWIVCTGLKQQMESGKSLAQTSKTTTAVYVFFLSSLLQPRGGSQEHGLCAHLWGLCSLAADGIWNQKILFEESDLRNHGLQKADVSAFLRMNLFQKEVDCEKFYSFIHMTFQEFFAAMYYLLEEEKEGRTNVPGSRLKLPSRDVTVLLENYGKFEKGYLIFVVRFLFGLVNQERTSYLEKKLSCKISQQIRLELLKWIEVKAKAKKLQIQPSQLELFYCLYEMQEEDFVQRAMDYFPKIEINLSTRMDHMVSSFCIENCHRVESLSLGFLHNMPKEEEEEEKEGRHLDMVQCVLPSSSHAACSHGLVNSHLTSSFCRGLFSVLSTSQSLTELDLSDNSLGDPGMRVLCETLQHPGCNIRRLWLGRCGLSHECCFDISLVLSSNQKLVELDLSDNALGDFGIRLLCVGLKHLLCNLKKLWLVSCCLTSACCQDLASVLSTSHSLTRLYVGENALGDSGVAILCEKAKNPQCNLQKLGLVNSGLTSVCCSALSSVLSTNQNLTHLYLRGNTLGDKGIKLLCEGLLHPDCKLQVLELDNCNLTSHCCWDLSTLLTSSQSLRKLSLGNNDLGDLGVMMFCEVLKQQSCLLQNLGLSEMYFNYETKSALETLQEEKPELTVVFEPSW

| Compound | IC50 (NLRP3 inflammasome) | IC50 (IL-6) |
| --- | --- | --- |
| CN1CCC[C@@H](N(C)c2nnc(-c3ccc(C(F)(F)F)cc3)c3c2cnn3C)C1 [Compound 106] | ≥ 10000 nM | ≥ 10000 nM |
| CN1CCC[C@@H](N(C)c2nnc(-c3ccc(F)cc3O)c3ccn(C)c23)C1 [Compound 81] | 100 to 500 nM | 1000 to 5000 nM |
| Cc1cc(C#N)ccc1-c1nnc(N[C@@H]2CCCN(C)C2)c2c1ccn2C [Compound 125] | 10 to 100 nM | – |
| CN1CCC[C@@H](Nc2nnc(-c3ncc(C(F)(F)F)cc3O)c3cnn(C)c23)C1 [Compound 166] | 10 to 100 nM | ≥ 10000 nM |
| Cc1cc(C(F)(F)F)cc(O)c1-c1nnc(N[C@@H]2CCCN(C)C2)c2c1ccn2C [Compound 143] | < 10 nM | ≤ 1000 nM |
| Cn1ccc2c(-c3ccc(C#N)cc3O)nnc(N[C@@H]3CCCN(CCF)C3)c21 [Compound 148] | 10 to 100 nM | ≥ 10000 nM |
| CN1CCC[C@@H](Nc2nnc(-c3ccc(C(F)(F)F)cc3)c3c2OCC3)C1 [Compound 58] | 100 to 500 nM | ≥ 10000 nM |
| Cc1cn(C)c2c(N[C@@H]3CCCN(C)C3)nnc(-c3ccc(C(F)(F)F)cc3)c12 [Compound 97] | 100 to 500 nM | ≥ 10000 nM |
| CN1CCC[C@@H](Nc2nnc(-c3ccc(C(F)(F)F)cn3)c3ccn(C)c23)C1 [Compound 129] | 100 to 500 nM | ≥ 10000 nM |
| Cn1ccc2c(-c3ccc(C#N)cc3O)nnc(N[C@@H]3CCCN(C4COC4)C3)c21 [Compound 160] | 1000 to 10000 nM | ≥ 10000 nM |
| CN1CCC[C@@H](Nc2nnc(-c3ncc(C#N)cc3Cl)c3cnn(C)c23)C1 [Compound 140] | 1000 to 10000 nM | – |
| Cc1cc(C#N)cc(O)c1-c1nnc(N[C@@H]2CCCN(C)C2)c2c1ccn2C [Compound 127] | < 10 nM | 5000 to 10000 nM |
| N#Cc1ccc(-c2nnc(N[C@@H]3CCCN(CCF)C3)c3sncc23)c(O)c1 [Compound 150] | 10 to 100 nM | – |
| Cc1cc2c(-c3ccc(C(F)(F)F)cc3)nnc(N[C@@H]3CCCN(C)C3)c2[nH]1 [Compound 21] | < 10 nM | ≥ 10000 nM |
| CN1CCC[C@@H](Nc2nnc(-c3ccc(C(F)(F)F)cn3)c3cnn(C)c23)C1 [Compound 136] | 100 to 500 nM | 1000 to 5000 nM |
| Cn1ccc2c(-c3ccc(C#N)cc3O)nnc(N[C@@H]3CCCN(C4CC4)C3)c21 [Compound 146] | 10 to 100 nM | ≥ 10000 nM |
| CCN1CCC[C@@H](Nc2nnc(-c3ccc(C#N)cc3O)c3ccn(C)c23)C1 [Compound 103] | < 10 nM | 5000 to 10000 nM |
| CN1CCC[C@@H](Nc2nnc(-c3ncc(C#N)cc3O)c3cc(Cl)n(C)c23)C1 [Compound 165] | < 10 nM | ≥ 10000 nM |
| CN1CCC[C@@H](N(C)c2nnc(-c3ccc(Cl)cc3)c3ccn(C)c23)C1 [Compound 82] | 1000 to 10000 nM | 1000 to 5000 nM |
| CN1CCC[C@@H](Oc2nnc(-c3ccc(F)cc3O)c3ccn(C)c23)C1 [Compound 89] | 100 to 500 nM | ≥ 10000 nM |

| Compound | IC50 (NLRP3 inflammasome) | IC50 (IL-6) |
| --- | --- | --- |
| Cn1ccc2c(-c3ccc(C#N)cc3O)nnc(N[C@H]3CN(CCF)CC(F)(F)C3)c21 [Compound 149] | ≥ 10000 nM | ≥ 10000 nM |
| CN1CCC[C@@H](N(C)c2nnc(-c3ccccc3O)c3cc[nH]c23)C1 (single isomer, unassigned) [Compound 24] | 100 to 500 nM | 5000 to 10000 nM |
| CN1CCC[C@@H](Oc2nnc(-c3ccc(F)cc3O)c3cc[nH]c23)C1 [Compound 90] | 100 to 500 nM | ≥ 10000 nM |
| CN1CCC[C@@H](N(C)c2nnc(-c3ccc(C#N)cc3O)c3ccn(C)c23)C1 [Compound 102] | 500 to 1000 nM | ≥ 10000 nM |
| CN1CCC[C@@H](N(C)c2nnc(-c3ccc(C#N)cc3)c3ccn(C)c23)C1 [Compound 84] | ≥ 10000 nM | ≥ 10000 nM |
| CN1CCC[C@@H](Nc2nnc(-c3ccc(F)cc3O)c3cc[nH]c23)C1 [Compound 4] | < 10 nM | 5000 to 10000 nM |
| CN(C)CCN1CCC[C@@H](Nc2nnc(-c3ccc(C#N)cc3O)c3ccn(C)c23)C1 [Compound 156] | 10 to 100 nM | ≥ 10000 nM |
| CN1CCC[C@@H](Nc2nnc(-c3ccccc3O)c3ccn(C)c23)C1 (single isomer, unassigned) [Compound 17] | 10 to 100 nM | ≥ 10000 nM |
| CN1CCC[C@@H](Nc2nnc(-c3ccc(C#N)cc3)c3ccn(C)c23)C1 [Compound 79] | 100 to 500 nM | ≥ 10000 nM |
| CN1CCC[C@@H](Nc2nnc(-c3ccccc3O)c3[nH]ccc23)C1 [Compound 8] | 100 to 500 nM | ≥ 10000 nM |
| CN1CCC[C@@H](Nc2nnc(-c3ccc(C(F)(F)F)cc3)c3[nH]ccc23)C1 (single isomer, unassigned) [Compound 2] | 100 to 500 nM | ≥ 10000 nM |
| CN1CCC[C@@H](Nc2nnc(-c3ccccc3C(F)F)c3cc[nH]c23)C1 [Compound 12] | 100 to 500 nM | ≥ 10000 nM |
| CN1CCC[C@@H](Nc2nnc(-c3ccccc3O)c3cc[nH]c23)C1 [Compound 14] | < 10 nM | – |
| CN1CCC[C@@H](Nc2nnc(-c3ccc(C(F)(F)F)cc3)c3cnsc23)C1 [Compound 63, (R)—N-(1-methylpiperidin-3-yl)-4-(4-(trifluoromethyl)phenyl)isothiazolo[4,5-d]pyridazin-7-amine] | 10 to 100 nM | 5000 to 10000 nM |
| CN1CCC[C@@H](Nc2nnc(-c3ncc(C(F)(F)F)cc3O)c3ccn(C)c23)C1 [Compound 168] | 1000 to 10000 nM | ≥ 10000 nM |
| CC(C)N1CCC[C@@H](Nc2nnc(-c3ncc(C#N)cc3O)c3ccn(C)c23)C1 [Compound 99] | < 10 nM | 5000 to 10000 nM |
| Cn1ncc2c(-c3ccc(C(F)(F)F)cc3)nnc(N[C@@H]3CCCN(C4CC4)C3)c21 [Compound 109] | 10 to 100 nM | ≥ 10000 nM |
| CN1CCC[C@@H](N(C)c2nnc(-c3ccc(F)cc3O)c3ccsc23)C1 [Compound 98] | 100 to 500 nM | ≥ 10000 nM |
| Cc1cc(C(F)(F)F)ccc1-c1nnc(N[C@@H]2CCCN(C)C2)c2c1cnn2C [Compound 110] | 10 to 100 nM | ≥ 10000 nM |
| CN1CCC[C@@H](Nc2nnc(-c3ccc(C(F)(F)F)cc3)c3c2ncn3C)C1 [Compound 29] | 500 to 1000 nM | ≥ 10000 nM |

| Compound | IC50 (NLRP3 inflammasome) | IC50 (IL-6) |
| --- | --- | --- |
| CN1CCC[C@@H](Nc2nnc(-c3ncc(C(F)(F)F)cc3Cl)c3ccn(C)c23)C1 [Compound 131] | 10 to 100 nM | ≥ 10000 nM |
| CN1CCC[C@@H](N(C)c2nnc(-c3ccc(F)cc3O)c3cc[nH]c23)C1 [Compound 96] | 10 to 100 nM | ≥ 10000 nM |
| CC(C)N1CCC[C@@H](Nc2nnc(-c3ccc(C(F)(F)F)cc3)c3ccn(C)c23)C1 [Compound 77] | 500 to 1000 nM | ≤ 1000 nM |
| CN1CCC[C@@H](Nc2nnc(-c3ncc(C#N)cc3O)c3cnn(C)c23)C1 [Compound 114] | 10 to 100 nM | – |
| CN1CCC[C@@H](Nc2nnc(-c3ccc(C(F)(F)F)cc3)c3ncn(C)c23)C1 [Compound 30] | 1000 to 10000 nM | ≥ 10000 nM |
| CN1C[C@H](Nc2nnc(-c3ccc(C(F)(F)F)cc3)c3cc[nH]c23)CC(F)(F)C1 [Compound 19] | 100 to 500 nM | 5000 to 10000 nM |
| CN1CCC[C@@H](Nc2nnc(-c3ccc(F)cc3)c3cc[nH]c23)C1 [Compound 5] | 10 to 100 nM | 1000 to 5000 nM |
| CN1CCC[C@@H](N(C)c2nnc(-c3ccc(C(F)(F)F)cc3)c3[nH]ccc23)C1 [Compound 72] | 1000 to 10000 nM | ≥ 10000 nM |
| CN1CCC[C@@H](Nc2nnc(-c3ccc(C#N)cc3O)c3cnsc23)C1 [Compound 144] | < 10 nM | ≥ 10000 nM |
| CN1CCC[C@@H](Nc2nnc(-c3ccc(C(F)(F)F)cc3)c3sncc23)C1 [Compound 64] | 10 to 100 nM | 5000 to 10000 nM |
| CN1CCC[C@@H](Nc2nnc(-c3ccc(Cl)cc3C(F)F)c3ccn(C)c23)C1 [Compound 121] | 10 to 100 nM | ≥ 10000 nM |
| CN1CCC[C@@H](Nc2nnc(-c3ccc(C#N)cc3O)c3ccn(C)c23)C1 [Compound 100] | 10 to 100 nM | 5000 to 10000 nM |
| CN1CCC[C@@H](Nc2nnc(-c3ccc(C#N)cc3C(F)F)c3ccn(C)c23)C1 [Compound 120] | 100 to 500 nM | – |
| CN1CCC[C@@H](Nc2nnc(-c3ncc(C#N)cc3O)c3ccn(C)c23)C1 [Compound 135] | ≥ 10000 nM | – |
| CN1CCC[C@@H](Nc2nnc(-c3ccccc3)c3[nH]ccc23)C1 [Compound 70] | ≥ 10000 nM | – |
| CN1CCC[C@@H](Nc2nnc(-c3ccc(C(F)(F)F)cc3C(F)F)c3ccn(C)c23)C1 [Compound 122] | < 10 nM | – |
| CN1CCC[C@@H](Nc2nnc(-c3ccccc3)c3cc[nH]c23)C1 [Compound 15] | 500 to 1000 nM | – |
| CN1CCC[C@@H](Nc2nnc(-c3ccc(C(F)(F)F)cc3)c3c2ccn3C)C1 [Compound 69] | 10 to 100 nM | – |
